Key:
[1] = Mouse pharmacokinetic (PK) study; type: in vivo; settings: male, BALB/c, plasma, po, 10 mg/kg, male BALB/c mice, 2 mg/kg IV, 10 mg/kg PO, read-out: oral bioavailability (% F)
From the text: The mouse was used to determine the pharmacokinetics of compounds of the invention. This species is widely used to assess the bioavailability of compounds by administering both oral (PO) and intravenous (IV) test articles. Efficacy of the compounds of the invention was compared by assessing plasma exposure in male BALB/c mice either via IV or PO administration at the times of peak activity.
Compounds of the invention were reconstituted in a phosphate buffered saline (PBS)/10% Solutol (HS 15) clear solution resulting in a concentration of 0.2 mg/mL and administered to mice (2 mg/kg) as a single IV dose. Animals were dosed via the lateral tail vein. Blood samples were collected at designated time points (0.083, 0.25, 0.5, 1, 2, 4, 8, 16, 24 hours) by cardiac puncture under isoflurane anesthesia (up to 1 mL blood per animal). The blood was collected into tubes containing Li-Heparin. The blood samples were kept on ice until centrifugation within approximately 30 minutes of collection. The plasma was transferred into labeled polypropylene tubes and frozen at −70° C. until analyzed by LC/MS/MS.
The compounds of the invention were reconstituted in 40% Propylene Glycol/40% Propylene Carbonate/20% of a 5% Sucrose clear solution resulting in a concentration of 2 mg/mL and administered to mice (10 mg/kg) as a single oral dose via gavage. Blood samples were collected at 0.25, 0.5, 1, 2, 4, 8, 12, 16, 20 and 24 hours post dose by cardiac puncture under isoflurane anesthesia. The blood was collected in tubes containing Li-Heparin. The blood samples were kept on ice until centrifugation within approximately 30 minutes of collection. The plasma was transferred into labeled polypropylene tubes and frozen at −70° C. until analyzed by LC/MS/MS.
Plasma samples at each timepoint were analyzed using a LC-MS/MS with a lower limit of quantification (LLOQ) of 1 ng/mL. Plasma was analyzed to determine the amount of the compound of the invention in each sample and regression curves generated for each compounds of the invention in the relevant matrixes.
WinNonlin analysis was used for calculating PK parameters for both the IV and PO administrations:
PK parameters for IV portion—AUClast; AUCINF; T1/2; Cl; Vss; Cmax; MRT
PK parameters for PO portion—AUClast; AUCINF; T1/2; Cmax; Cl, MRT.
In addition to the above PK parameters, bioavailability (% F) was calculated.

[2] = biological target: T1, S-nitrosoglutathione reductase (GSNOR) (Homo sapiens, UniProt P11766); assay: GSNOR assay (inhibition of GSNOR activity, NADH absorbance at 340 nm); type: biochemical; settings: GSNOR inhibitor activity, Tables 1-6; read-out: IC50 range
T1 construct: made in house; host or cells: E. coli
Outline: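 Recombinant GSNOR purified from E. coli, tag removed. Final conditions: 100 mM NaPO4 pH 7.4, 0.240 mM GSNO, 0.300 mM NADH, 0.5 μg/mL enzyme, 1% DMSO; NADH loss followed as 340 nm absorbance change over 3 min at 25 °C. Compounds 100–0.003 μM, triplicate; IC50 by curve analysis.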

[3] = tested on: cigarette smoke-induced COPD; assay: Subchronic (11 day) cigarette smoke exposure COPD model; type: in vivo, mouse; settings: for effects compared with roflumilast / inhibition of smoke-induced increase in lymphocytes in BAL / inhibition of smoke-induced increase in macrophages in BAL / inhibition of smoke-induced increase in neutrophils in BAL / inhibition of smoke-induced increase in total cells in BAL: subchronic 11 day model; for effects compared with roflumilast: roflumilast 5 mg/kg/day; for inhibition of smoke-induced increase in lymphocytes in BAL / inhibition of smoke-induced increase in macrophages in BAL / inhibition of smoke-induced increase in neutrophils in BAL / inhibition of smoke-induced increase in total cells in BAL: oral 1 mg/kg/day for 11 days
Procedure: Infiltration of inflammatory cells into the bronchoalveolar lavage fluid (BALF) and BALF levels of chemokines involved in inflammation and tissue turnover/repair were measured to assess the influences of GSNOR inhibitors on some of the early events associated with the initiation and progression of COPD. […] In animal models, changes in lung pathology are only evident after extended (several months) duration of exposure to cigarette smoke, thus making chronic models prohibitive as effective screening tools. […] The key roles of inflammation in the initiation and progression of COPD, make these short duration models relevant for initial tests of efficacy of novel therapeutics. Female C57Bl/6 mice (N=10 per group) were exposed to cigarette smoke generated from Marlboro 100 cigarettes without filters. Exposure times were 25 min. on study day 1, 35 min. on study day 2, and 45 min. on study days 3 to 11. GSNOR inhibitors were administered one hour prior to smoke exposure on each day. GSNOR inhibitors were dosed orally at 1 to 10 mg/kg/day for 11 days. […] The effect of GSNOR inhibitors were compared to vehicle treated controls and expressed as percent inhibition of the cigarette smoke induced increases in BALF cell numbers. Roflumilast was used as the positive control for the study and was dosed at 5 mg/kg/day. A group of naïve mice (N=10) was exposed to air and dosed with vehicle as a negative control for the study.

[4] = tested on: dextran sodium sulfate (DSS)-induced IBD; assay: Acute prophylactic model of DSS-induced IBD; type: in vivo, mouse; settings: prophylactic
From the text: (§1) Acute and chronic models of dextran sodium sulfate (DSS)-induced IBD in mice were used to explore efficacy of GSNORi against this disease. Acute and chronic DSS-induced IBD are widely used and well characterized models that induce pathological changes in the colon similar to those observed in the human disease. In these models and in human disease, epithelial cells within the crypts of the colon are disrupted, leading to dysfunction of the epithelial barrier and the ensuing tissue inflammation, edema, and ulceration. GSNORi therapy may benefit IBD by restoring s-nitrosoglutathione (GSNO) levels, and thus prevent or reverse the epithelial barrier dysfunction. Experimental IBD was induced by administration of DSS in the drinking water of male C57Bl/6 mice (N=8 to 10 mice per group) for 6 consecutive days. GSNORi was dosed orally at doses of 0.1 to 10 mg/kg/day for 10 days starting two days prior to and continuing two days post DSS exposure. […] Levels of circulating cytokines involved in inflammatory pathways were also assessed. The effect of GSNORi was compared to vehicle treated controls. […] Naïve mice (N=5) were also assessed as a normal tissue control.

[5] = tested on: dextran sodium sulfate (DSS)-induced IBD; assay: Chronic treatment model of DSS-induced IBD; type: in vivo, mouse; settings: oral 10 mg/kg/day for up to 14 days, treatment regimen
From the text: as §1, with “mice (N=10” for “mice (N=8”, “to 12” for “to 10”, “of” for “of 0.1 to”, “for 14” for “for 10”, “starting one day after cessation of” for “starting two days prior to and continuing two days post”

[6] = tested on: ovalbumin (OVA)-induced asthma; assay: Mouse model of ovalbumin (OVA)-induced asthma (Penh, eosinophil infiltrate in BALF); type: in vivo; settings: three oral doses of 10 mg/kg at 48 h, 24 h, and 1 h prior to assessment
Procedure: A mouse model of ovalbumin (OVA)-induced asthma was used to screen GSNOR inhibitors for efficacy against methacholine (MCh)-induced bronchoconstriction/airway hyper-responsiveness. This is a widely used and well characterized model that presents with an acute, allergic asthma phenotype with similarities to human asthma. Efficacy of GSNOR inhibitors was assessed using a protocol in which GSNOR inhibitors were administered after OVA sensitization and airway challenge, and prior to challenge with MCh. Bronchoconstriction in response to challenge with increasing doses of MCh was assessed using whole body plethysmography (Penh; Buxco). The amount of eosinophil infiltrate into the bronchoaveolar lavage fluid (BALF) was also determined as a measure of lung inflammation. The effects of GSNOR inhibitors were compared to vehicles and to Combivent (inhaled; IH) as the positive control.
OVA (500 μg/ml) in PBS was mixed with equal volumes of 10% (w/v) aluminum potassium sulfate in distilled water and incubated for 60 min. at room temperature after adjustment to pH 6.5 using 10 N NaOH. After centrifugation at 750×g for 5 min, the OVA/alum pellet was resuspended to the original volume in distilled water. Mice received an intraperitoneal (IP) injection of 100 μg OVA (0.2 mL of 500 μg/mL in normal saline) complexed with alum on day 0. Mice were anesthetized by IP injection of a 0.2-mL mixture of ketamine and xylazine (0.44 and 6.3 mg/mL, respectively) in normal saline and were placed on a board in the supine position. Two hundred fifty micrograms (100 μl of a 2.5 mg/ml) of OVA (on day 8) and 125 μg (50 μl of 2.5 mg/ml) OVA (on days 15, 18, and 21) were placed on the back of the tongue of each animal.
In vivo airway responsiveness to methacholine was measured 24 h after the last OVA challenge in conscious, freely moving, spontaneously breathing mice with whole body plethysmography using a Buxco chamber (Wilmington, N.C.). Mice were challenged with aerosolized saline or increasing doses of methacholine (5, 20, and 50 mg/mL) generated by an ultrasonic nebulizer for 2 min. The degree of bronchoconstriction was expressed as enhanced pause (Penh), a calculated dimensionless value, which correlates with the measurement of airway resistance, impedance, and intrapleural pressure in the same mouse. Penh readings were taken and averaged for 4 min. after each nebulization challenge. Penh is calculated as follows: Penh=[(Te/Tr−1)×(PEF/PIF)], where Te is expiration time, Tr is relaxation time, PEF is peak expiratory flow, and PIF is peak inspiratory flow×0.67 coefficient. The time for the box pressure to change from a maximum to a user-defined percentage of the maximum represents the relaxation time. The Tr measurement begins at the maximum box pressure and ends at 40%.
After measurement of airway hyper-reactivity, the mice were exsanguinated by cardiac puncture, and then BALF was collected from either both lungs or from the right lung after tying off the left lung at the mainstem bronchus. Total BALF cells were counted from a 0.05 mL aliquot, and the remaining fluid was centrifuged at 200×g for 10 min at 4° C. Cell pellets were resuspended in saline containing 10% BSA with smears made on glass slides. Eosinophils were stained for 5 min. with 0.05% aqueous eosin and 5% acetone in distilled water, rinsed with distilled water, and counterstained with 0.07% methylene blue. Alternatively, eosinophils and other leukocytes were stained with DiffQuik.
GSNOR inhibitors were reconstituted in phosphate buffered saline (PBS), pH 7.4, or 0.5% w/v carboxy methylcellulose at concentrations ranging from 0.00005 to 3 mg/mL. GSNOR inhibitors were administered to mice (10 mL/kg) as a single dose or multiple dose either intravenously (IV) or orally via gavage. Dosing was performed from 30 min. to 72 h prior to MCh challenge. Effects of GSNOR inhibitors were compared to vehicle dosed in the same manner.
Combivent was used as the positive control in all studies. […]

T1 sequence (P11766 whole entry): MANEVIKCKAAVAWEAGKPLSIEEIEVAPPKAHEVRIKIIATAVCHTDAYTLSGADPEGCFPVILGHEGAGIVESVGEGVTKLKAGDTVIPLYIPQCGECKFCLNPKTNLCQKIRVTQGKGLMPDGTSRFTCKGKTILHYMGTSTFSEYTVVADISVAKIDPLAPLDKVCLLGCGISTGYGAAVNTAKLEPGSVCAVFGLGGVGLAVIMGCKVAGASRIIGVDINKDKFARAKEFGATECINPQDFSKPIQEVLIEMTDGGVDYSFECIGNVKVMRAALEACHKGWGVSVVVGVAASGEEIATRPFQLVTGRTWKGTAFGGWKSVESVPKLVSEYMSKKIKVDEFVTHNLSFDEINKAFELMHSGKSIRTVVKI

Compound `Oc1ccc2nc(-c3ccc(-c4nnn[nH]4)cc3)ccc2c1` [Compound I-4] has a bioavailability [1] greater than 9% and an IC50 [2] of less than 100 nM.
In the case of `O=C(O)c1ccc(-c2ccc3cc(O)ccc3n2)c(Cl)c1` [Compound I-8, 3-chloro-4-(6-hydroxyquinolin-2-yl)benzoic acid], the “dose response of effect” value ([3]; subchronic 11 day model, 1, 5, or 10 mg/kg/day) is reported as “no dose response of effect”, the “effects compared with roflumilast” value [3] is reported as “comparable to those of roflumilast” and the “decrease of percent of mice with severe colon injury scores via endoscopy” value ([4]; oral 10 mg/kg/day for 10 days) is reported as 44 % of vehicle control. For the same compound, the “decrease of percent of mice with severe colon injury scores via histopathology” value ([4]; oral 10 mg/kg/day for 10 days) was 26 % of vehicle control and the IC50 [2] was less than 100 nM.
In the case of `O=C(O)c1ccc(-c2ccc3cc(O)ccc3n2)c(F)c1` [Compound I-13], the “inhibition of smoke-induced increase in lymphocytes in BAL” value [3] is reported as 60%, the “inhibition of smoke-induced increase in macrophages in BAL” value [3] is reported as 53% and the “inhibition of smoke-induced increase in neutrophils in BAL” value [3] is reported as 67%. For the same compound, the “inhibition of smoke-induced increase in total cells in BAL” value [3] was 56%, the “effects compared with roflumilast” value [3] was “comparable to those of roflumilast” and the “decrease of percent of mice with severe colon injury scores via endoscopy” value [5] was 52 % of vehicle control. For the same compound, the “decrease of percent of mice with severe colon injury scores via histopathology” value [5] was 53 % of vehicle control and the IC50 [2] was less than 100 nM.
Work on `O=C(O)c1ccc(-c2nc3ccc(O)cc3cc2Cl)cc1` [Compound I-19] yielded a bioavailability [1] greater than 9% and an IC50 [2] of less than 100 nM.
With `Cc1cc(C(=O)O)ccc1-c1ccc2cc(O)ccc2n1` [Compound I-27] the “inhibition of smoke-induced increase in lymphocytes in BAL” value [3] was 46%, the “inhibition of smoke-induced increase in macrophages in BAL” value [3] was 41% and the “inhibition of smoke-induced increase in neutrophils in BAL” value [3] was 64%. For the same compound, the “inhibition of smoke-induced increase in total cells in BAL” value [3] was 44%, the “effects compared with roflumilast” value [3] was “comparable to those of roflumilast” and the “decrease of eosinophil infiltration in BAL” value [6] was 23 % of vehicle control. The IC50 [2] was less than 100 nM.
In the case of `O=C(O)c1ccc(-c2nc3ccc(O)cc3cc2Cl)c(F)c1` [Compound I-28], the bioavailability [1] is reported as greater than 9% and the IC50 [2] is reported as less than 100 nM.
With `O=C(O)c1ccc(-c2ccc3cc(O)ccc3c2)c(Cl)c1` [III-1] the “effects compared with roflumilast” value [3] was “comparable to those of roflumilast”, the “decrease of percent of mice with severe colon injury scores via endoscopy” value ([4]; oral 1 mg/kg/day for 10 days) was 17 % of vehicle control and the “decrease of percent of mice with severe colon injury scores via histopathology” value ([4]; oral 1 mg/kg/day for 10 days) was 21 % of vehicle control. The “decrease of percent of mice with severe colon injury scores via endoscopy” value [5] was 50 % of vehicle control, the “decrease of percent of mice with severe colon injury scores via histopathology” value [5] was 17 % of vehicle control and the IC50 [2] was less than 100 nM.

From patent publication US20140094465A1, “Compounds as S-Nitrosoglutathione Reductase Inhibitors” (N30 PHARMACEUTICALS, INC., priority 2011, published 2014)
